Measurements reported in the supplement of paper PMC11451515.

Test system: P12-Ichikawa
Assay: cell viability relative to DMSO control; higher = less cytotoxic
Settings: 48 h
In short: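 NOMO1, SEM and P12-Ichikawa leukemia cells spent at least four passages adapting to each medium before use. They were seeded at 500 cells/well (NOMO1, SEM) or 1000 cells/well (P12-Ichikawa) in 5 μl in 1536-well plates and pin-dosed with library compounds in DMSO at 11 threefold steps from 47 μM down to 0.79 nM. After 48 h at 37°C, CellTiter-Glo One luminescence was read. Viability is reported as a percentage of the DMSO wells on each plate, with cell-free wells as background.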

[1] = HPLM + 10% dialyzed FBS, 0.000781 µM
[2] = HPLM + 10% dialyzed FBS, 0.00234 µM
[3] = HPLM + 10% dialyzed FBS, 0.00702 µM
[4] = HPLM + 10% dialyzed FBS, 0.0211 µM
[5] = HPLM + 10% dialyzed FBS, 0.0632 µM
[6] = HPLM + 10% dialyzed FBS, 0.19 µM
[7] = HPLM + 10% dialyzed FBS, 0.569 µM
[8] = HPLM + 10% dialyzed FBS, 1.71 µM
[9] = HPLM + 10% dialyzed FBS, 5.12 µM
[10] = HPLM + 10% dialyzed FBS, 15.4 µM
[11] = HPLM + 10% dialyzed FBS, 46.1 µM
[12] = RPMI 5 mM glucose + 10% FBS, 0.000781 µM
[13] = RPMI 5 mM glucose + 10% FBS, 0.00234 µM
[14] = RPMI 5 mM glucose + 10% FBS, 0.00702 µM
[15] = RPMI 5 mM glucose + 10% FBS, 0.0211 µM
[16] = RPMI 5 mM glucose + 10% FBS, 0.0632 µM
[17] = RPMI 5 mM glucose + 10% FBS, 0.19 µM
[18] = RPMI 5 mM glucose + 10% FBS, 0.569 µM
[19] = RPMI 5 mM glucose + 10% FBS, 1.71 µM
[20] = RPMI 5 mM glucose + 10% FBS, 5.12 µM
[21] = RPMI 5 mM glucose + 10% FBS, 15.4 µM
[22] = RPMI 5 mM glucose + 10% FBS, 46.1 µM
[23] = RPMI 5 mM glucose + 10% dialyzed FBS, 0.000781 µM
[24] = RPMI 5 mM glucose + 10% dialyzed FBS, 0.00234 µM
[25] = RPMI 5 mM glucose + 10% dialyzed FBS, 0.00702 µM
[26] = RPMI 5 mM glucose + 10% dialyzed FBS, 0.0211 µM
[27] = RPMI 5 mM glucose + 10% dialyzed FBS, 0.0632 µM
[28] = RPMI 5 mM glucose + 10% dialyzed FBS, 0.19 µM
[29] = RPMI 5 mM glucose + 10% dialyzed FBS, 0.569 µM
[30] = RPMI 5 mM glucose + 10% dialyzed FBS, 1.71 µM
[31] = RPMI 5 mM glucose + 10% dialyzed FBS, 5.12 µM
[32] = RPMI 5 mM glucose + 10% dialyzed FBS, 15.4 µM
[33] = RPMI 5 mM glucose + 10% dialyzed FBS, 46.1 µM

Compound | cell viability [1] [%] | cell viability [2] [%] | cell viability [3] [%] | cell viability [4] [%] | cell viability [5] [%] | cell viability [6] [%] | cell viability [7] [%] | cell viability [8] [%] | cell viability [9] [%] | cell viability [10] [%] | cell viability [11] [%] | cell viability [12] [%] | cell viability [13] [%] | cell viability [14] [%] | cell viability [15] [%] | cell viability [16] [%] | cell viability [17] [%] | cell viability [18] [%] | cell viability [19] [%] | cell viability [20] [%] | cell viability [21] [%] | cell viability [22] [%] | cell viability [23] [%] | cell viability [24] [%] | cell viability [25] [%] | cell viability [26] [%] | cell viability [27] [%] | cell viability [28] [%] | cell viability [29] [%] | cell viability [30] [%] | cell viability [31] [%] | cell viability [32] [%] | cell viability [33] [%]
COc1cc2c(Nc3ccc(Cl)c(Cl)c3F)ncnc2cc1OC[C@@H]1C[C@@H]2CN(C)C[C@@H]2C1 | 95.2 | 102 | 108 | 112 | 100 | 110 | 104 | 104 | 108 | 81.8 | 5.15 | 95.3 | 102 | 98 | 105 | 109 | 112 | 114 | 110 | 119 | 106 | 5.73 | 108 | 114 | 108 | 113 | 117 | 117 | 115 | 111 | 113 | 89.6 | 4.74
CN1CCN(CCCN2c3ccccc3Sc3ccc(Cl)cc32)CC1.O=C(O)/C=C\C(=O)O.O=C(O)/C=C\C(=O)O | 108 | 108 | 105 | 105 | 106 | 107 | 114 | 99 | 108 | 36.1 | 34.8 | 119 | 110 | 125 | 126 | 119 | 137 | 122 | 112 | 114 | 29.5 | 31.2 | 106 | 105 | 106 | 108 | 116 | 112 | 111 | 110 | 104 | 28.1 | 32.1
COC(=O)Nc1nc2ccc([S+]([O-])c3ccccc3)cc2[nH]1 (stereo not given) | 109 | 119 | 111 | 114 | 111 | 116 | 122 | 119 | 95.5 | 55.5 | 86 | 100 | 115 | 103 | 119 | 118 | 120 | 115 | 135 | 110 | 74.4 | 92.4 | 118 | 120 | 117 | 118 | 124 | 118 | 128 | 122 | 117 | 95 | 97.4
O=C(NCC1CCOCC1)c1cnc(Nc2ccc(Cl)cc2Cl)nc1C(F)(F)F | 102 | 111 | 115 | 118 | 109 | 117 | 118 | 115 | 115 | 121 | 124 | 100 | 127 | 123 | 121 | 130 | 131 | 112 | 131 | 123 | 132 | 118 | 98 | 115 | 114 | 127 | 123 | 132 | 120 | 122 | 122 | 127 | 123
COC(=O)[C@H](c1ccccc1Cl)N1CCc2sccc2C1 | 95.8 | 99.1 | 100 | 109 | 108 | 113 | 107 | 110 | 102 | 15.7 | 12.9 | 101 | 113 | 120 | 117 | 120 | 125 | 122 | 113 | 115 | 21.4 | 14.1 | 91.6 | 105 | 109 | 111 | 115 | 111 | 118 | 117 | 104 | 45.9 | 18.7
COc1ccc([S+](=O)([O-])Nc2cccnc2Nc2ccc(O)cc2)cc1 | 124 | 118 | 124 | 119 | 122 | 125 | 129 | 122 | 17.2 | 14.8 | 10.8 | 125 | 121 | 116 | 126 | 120 | 119 | 118 | 122 | 22.3 | 17.7 | 17.3 | 117 | 128 | 118 | 114 | 121 | 113 | 108 | 113 | 39 | 28 | 24
C[C@@H](N)C1CC[C@@H](CC1)C(=O)NC2=CC=NC=C2 (stereo not given in full) | 109 | 112 | 111 | 115 | 112 | 113 | 123 | 116 | 125 | 116 | 104 | 117 | 109 | 115 | 125 | 118 | 127 | 121 | 114 | 118 | 109 | 112 | 110 | 121 | 119 | 122 | 121 | 130 | 124 | 134 | 120 | 121 | 118
N=C(N)NC(=N)N1CCOCC1 | 104 | 108 | 107 | 113 | 106 | 116 | 109 | 104 | 106 | 103 | 108 | 103 | 98.3 | 90.7 | 93.2 | 97.8 | 98.1 | 99.7 | 93.5 | 87.8 | 92.5 | 92.4 | 101 | 105 | 92.4 | 102 | 109 | 93.8 | 99.8 | 96.8 | 91.2 | 86.8 | 98.9
COc1cc(Cl)cn2c(-c3cccc(NC4CNC4)n3)cnc12 | 125 | 121 | 131 | 125 | 129 | 130 | 131 | 135 | 129 | 127 | 139 | – | – | – | – | – | – | – | – | – | – | – | – | – | – | – | – | – | – | – | – | – | –
Nc1nc(NCCNc2ncc(-n3ccnc3)c(-c3ccc(Cl)cc3Cl)n2)ccc1[N+](=O)[O-] | 114 | 119 | 125 | 123 | 126 | 132 | 133 | 131 | 134 | 130 | 125 | – | – | – | – | – | – | – | – | – | – | – | – | – | – | – | – | – | – | – | – | – | –
OCCN(CCO)c1nc(N2CCCCC2)c2nc(N(CCO)CCO)nc(N3CCCCC3)c2n1 | 113 | 110 | 118 | 114 | 114 | 113 | 109 | 107 | 107 | 98 | 75 | 108 | 108 | 113 | 111 | 119 | 113 | 110 | 106 | 109 | 109 | 68.2 | 113 | 105 | 111 | 106 | 117 | 106 | 105 | 101 | 103 | 101 | 58.4
NNc1nncc2ccccc12 | 112 | 121 | 127 | 122 | 126 | 131 | 121 | 134 | 129 | 124 | 130 | – | – | – | – | – | – | – | – | – | – | – | – | – | – | – | – | – | – | – | – | – | –
CC(C)Cn1cnc2c(N)nc3ccccc3c21 | 124 | 113 | 107 | 116 | 115 | 112 | 113 | 106 | 87.6 | 75.1 | 89.9 | 113 | 123 | 116 | 119 | 111 | 115 | 110 | 107 | 106 | 106 | 85.1 | 111 | 111 | 109 | 115 | 115 | 112 | 105 | 107 | 104 | 102 | 81
O=C(NCc1ccccc1)c1csc(Nc2ccncn2)n1 | 91 | 95.5 | 100 | 110 | 105 | 108 | 103 | 85.2 | 62.9 | 5.82 | 1.69 | 94 | 96.1 | 92.9 | 104 | 106 | 94.5 | 104 | 63.7 | 37.6 | 5.79 | 2.56 | 93.4 | 101 | 104 | 112 | 106 | 97.2 | 102 | 80.6 | 36 | 6.99 | 2.78
NC(CO)C(=O)NNCc1ccc(O)c(O)c1O (stereo not given) | 103 | 93.7 | 99.7 | 103 | 103 | 100 | 87.9 | 90.7 | 90.9 | 92.2 | 54 | 96.5 | 100 | 99.6 | 91 | 105 | 99.5 | 91.7 | 92.8 | 93.6 | 81 | 19.1 | 99.9 | 89 | 94 | 98.3 | 96.5 | 93.7 | 88.6 | 94.2 | 85.3 | 91.4 | 26.5
COC(=O)C/1=C(C)/N/C(=C(\C1C2=CC(=CC=C2)[N+]([O-])=O)C(=O)OCCCN3CCC(CC3)(C4=CC=CC=C4)C5=CC=CC=C5)C (stereo not given) | 109 | 101 | 104 | 101 | 106 | 101 | 96.1 | 107 | 97.3 | 92.6 | 95 | 107 | 103 | 107 | 81.4 | 95.7 | 95.3 | 98.4 | 89.6 | 89.6 | 92.4 | 93 | 103 | 102 | 99.3 | 88.3 | 98.8 | 95 | 91.4 | 94.9 | 94 | 94.4 | 94.6
OC[C@H]1OC(OC2=CC3=C(C(=C2)O)C(=O)\C(=C/O3)C4=CC=C(O)C=C4)[C@H](O)[C@@H](O)[C@@H]1O (stereo not given in full) | 87.8 | 90.5 | 91.9 | 81.5 | 86.2 | 86.9 | 86.1 | 84.1 | 76 | 80.5 | 81.3 | 76.4 | 89.3 | 83.8 | 88.7 | 95.2 | 83.2 | 82.9 | 78 | 79 | 82.4 | 85.6 | 82.5 | 85.1 | 90.6 | 88.1 | 86 | 82.9 | 69.3 | 86.3 | 71.7 | 79.7 | 80
